Where two headings read alike, the source gives them in different places.
Tests used:
E. coli 16329 = type: cell-based, Escherichia coli; conditions: E. coli U-16329
In short: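 Bacterial suspensions (100 μl) were added to 100 μl of culture medium carrying 2-fold serially diluted antibiotic together with a fraction of the polymer's MIC, or to plain medium as control. Plates were incubated 24 hours at 37° C, and proliferation was read at 620 nm against calibration standards. Starting inoculum was 10^5 bacteria per ml.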

S. aureus 43300 [1] = test: Antibiotic MIC by microdilution with or without sub-MIC polymer; type: cell-based, Staphylococcus aureus
S. maltophila 748 = test: as above; type: cell-based, Stenotrophomonas maltophila
[2] = system: E. coli K-12 resistant wild type; type: cell-based, Escherichia coli; conditions: E. coli AG100 (w.t.)
[3] = system: E. coli K-12 efflux knockout mutant; type: cell-based, Escherichia coli; conditions: E. coli AG100A (efflux−)
In short: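 Broth microdilution, inocula 10^5 bacteria/ml, 24 h at 37 °C. Growth read as OD620 against calibration standards.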

E. coli 14182 = test: Antibiotic MIC by microdilution with or without sub-MIC polymer; type: cell-based, Escherichia coli
S. aureus 43300 [4] = test: as above; type: cell-based, Staphylococcus aureus; conditions: no polymer (None)
S. aureus 15877 = test: as above; type: cell-based, Staphylococcus aureus
Procedure: (§1) MICs were determined by microdilution susceptibility testing in 96-well plates (by Nunc) using inocula of 10^5 bacteria per ml. Cell populations were evaluated by optical density measurements at 620 nm and were calibrated against a set of standards. Hundred (100) μl of a bacterial suspension were added to 100 μl of culture medium (control) or to 100 μl of culture medium containing various polymer concentrations in 2-fold serial dilutions. Inhibition of proliferation was determined by optical density measurements at 620 nm after an incubation period of 24 hours at 37° C.
(§2) MICs were determined by microdilution susceptibility testing in 96-well plates (Nunc) using inocula of 10^5 bacteria per ml. One hundred (100) μl of a bacterial suspension were added to 100 μl of culture medium (control) or to 100 μl of culture medium containing various antibiotic and C12(5-ene)KKNC12KNH2 (SEQ ID NO: 2) concentrations in 2-fold serial dilutions. Inhibition of proliferation was determined by optical density measurements at 620 nm after an incubation period of 24 hours at 37° C.

MRSA 15903 = test: microbe, parasite or virus in culture; type: cell-based, Staphylococcus aureus
In short: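 Two-agent combinations tested against MRSA 15903; FIC index = A/MICA + B/MICB, using MICs in combination versus alone. Below 0.5 read as clear re-sensitizing, 0.5–4 marginal or null, above 4 antagonism.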

E. coli 14384 = test: Antibiotic MIC by microdilution with or without sub-MIC polymer; type: cell-based, Escherichia coli; conditions: E. coli 14384
In short: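 Microdilution MICs used 10^5 bacteria per ml and 2-fold serial dilutions of antibiotic in medium, alone or combined with […]. Plates stood 24 hours at 37° C before turbidity reading at 620 nm.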

S. aureus 15819 = test: as above; type: cell-based, Staphylococcus aureus; conditions: S. aureus 15819
Procedure: as §1, §2

[5] = +¼ MIC (1.6 μM) C12K(KNC12K)3NH2
[6] = +⅓ MIC (2.1 μM) C12K(KNC12K)3NH2
[7] = polymer at ¼ of its MIC (Table 16)
[8] = polymer at ½ of its MIC (Table 16)
[9] = polymer at ⅓ of its MIC (Table 16)
[10] = +¼ MIC (1.6 μM) C12(5-ene)KKNC12KNH2

SMILES: CN(C)[C@@H]1C(O)=C(C(N)=O)C(=O)[C@@]2(O)C(O)=C3C(=O)c4c(O)cccc4[C@@](C)(O)[C@H]3C[C@@H]12 [Tetracycline, tetracycline]
- Antibiotic MIC (E. coli 16329; +½ MIC C12K(NC8K)5NH2): 64 µg/mL
- Antibiotic MIC in presence of C12K(NC8K)7NH2 (SEQ ID NO: 4), +½ MIC (E. coli 16329; polymer at ½ of its MIC): 32 to 64 µg/mL
- Antibiotic MIC (S. aureus 43300 [1]; +¼ MIC (1.6 μM) C12K(KNC12K)2NH2): 0.5 µg/mL
- Antibiotic MIC (S. aureus 43300 [1]; +¼ MIC (1.6 μM) C12KKNC12KNH2): 0.5 µg/mL
- Antibiotic MIC (S. aureus 43300 [1]; +¼ MIC (1.6 μM) C16(9-ene)KKNC12KNH2): 0.25 µg/mL
- Antibiotic MIC (S. aureus 43300 [1]; +½ MIC (3.12 μM) C12K(KNC12K)2NH2): 0.5 µg/mL
- Antibiotic MIC (S. aureus 43300 [1]; +½ MIC (3.12 μM) C12KKNC12KNH2): 0.5 µg/mL
- Antibiotic MIC (S. aureus 43300 [1]; +⅓ MIC (2.1 μM) C12K(KNC12K)2NH2): 0.5 µg/mL
- Antibiotic MIC (S. aureus 43300 [1]; +⅓ MIC (2.1 μM) C12KKNC12KNH2): 0.5 µg/mL
- Antibiotic MIC (S. maltophila 748; [5]): 64 µg/mL
- Antibiotic MIC (S. maltophila 748; +½ MIC (3.12 μM) C12K(KNC12K)3NH2): 32 µg/mL
- Antibiotic MIC (S. maltophila 748; [6]): 64 µg/mL
- Antibiotic MIC in presence of C12K(NC8K)7NH2 (SEQ ID NO: 4), +¼ MIC [2, 7]: 1 to 2 µg/mL
- Antibiotic MIC in presence of C12K(NC8K)7NH2 (SEQ ID NO: 4), +½ MIC [2, 8]: 0.25 to 0.5 µg/mL
- Antibiotic MIC in presence of C12K(NC8K)7NH2 (SEQ ID NO: 4), +⅓ MIC [2, 9]: 0.5 µg/mL
- Antibiotic MIC, None ([3]; antibiotic alone (Table 16)): 0.5 µg/mL
- Antibiotic MIC, None ([3]; antibiotic alone (Table 17)): 0.5 µg/mL
- Antibiotic MIC in presence of C12K(NC8K)7NH2 (SEQ ID NO: 4), +¼ MIC [3, 7]: 0.5 µg/mL
- Antibiotic MIC in presence of C12K(NC8K)7NH2 (SEQ ID NO: 4), +½ MIC [3, 8]: 0.25 to 0.5 µg/mL
- Antibiotic MIC in presence of C12K(NC8K)7NH2 (SEQ ID NO: 4), +⅓ MIC [3, 9]: 0.5 µg/mL
- Antibiotic MIC (E. coli 14182; +¼ MIC C12K(NC8K)5NH2): 32 µg/mL
- Antibiotic MIC (E. coli 14182; +½ MIC C12K(NC8K)5NH2): 8 to 16 µg/mL
- Antibiotic MIC (E. coli 14182; +⅓ MIC C12K(NC8K)5NH2): 32 µg/mL
- Antibiotic MIC, None (E. coli 14182; antibiotic alone (Table 15)): 32 to 64 µg/mL
- Antibiotic MIC (E. coli 14182; no polymer (None), Table 14): 32 to 64 µg/mL
- Antibiotic MIC in presence of C12K(NC8K)7NH2 (SEQ ID NO: 4), +¼ MIC (E. coli 14182; polymer at ¼ of its MIC): 32 µg/mL
- Antibiotic MIC in presence of C12K(NC8K)7NH2 (SEQ ID NO: 4), +½ MIC (E. coli 14182; polymer at ½ of its MIC): 8 to 16 µg/mL
- Antibiotic MIC in presence of C12K(NC8K)7NH2 (SEQ ID NO: 4), +⅓ MIC (E. coli 14182; polymer at ⅓ of its MIC): 32 µg/mL
- Antibiotic MIC (S. aureus 43300 [4]; Table 8): 0.25 µg/mL
- Antibiotic MIC (S. aureus 43300 [4]; Table 9): 0.25 µg/mL
- Antibiotic MIC (S. aureus 43300 [4]; Table 10): 0.25 µg/mL
- Antibiotic MIC (S. aureus 43300 [4]; Table 11): 0.5 µg/mL
- Antibiotic MIC (S. aureus 43300 [4]; Table 12): 0.5 µg/mL
- Antibiotic MIC (S. aureus 15877; [10]): 1 µg/mL
- Antibiotic MIC (S. aureus 15877; +½ MIC (3.12 μM) C12(5-ene)KKNC12KNH2): 0.5 to 1 µg/mL
- Antibiotic MIC (S. aureus 15877; +⅓ MIC (2.1 μM) C12(5-ene)KKNC12KNH2): 1 µg/mL
- Antibiotic MIC (S. aureus 15877; no polymer (None), Table 8): 1 µg/mL
- MIC (MRSA 15903; MRSA 15903, +¼ polymer MIC (1.6 μM) NC12(KNC12K)2NH2): 0.5 µg/mL
- MIC (MRSA 15903; MRSA 15903, +½ polymer MIC (3.1 μM) NC12(KNC12K)2NH2): 0.004 µg/mL
- MIC (MRSA 15903; MRSA 15903, +⅓ polymer MIC (2.1 μM) NC12(KNC12K)2NH2): 0.25 µg/mL
- MIC, ¼ + MIC OAK (MRSA 15903; MRSA 15903, with C12K(KNC10K)3NH2 (SEQ ID NO: 10) at ¼ of its MIC): 1 µg/mL
- MIC, ½ + MIC OAK (MRSA 15903; MRSA 15903, with C12K(KNC10K)3NH2 (SEQ ID NO: 10) at ½ of its MIC): 0.25 µg/mL
- MIC, ⅓ + MIC OAK (MRSA 15903; MRSA 15903, with C12K(KNC10K)3NH2 (SEQ ID NO: 10) at ⅓ of its MIC): 1 µg/mL
- MIC (MRSA 15903; S. aureus CI-15903, +polymer (¼ MIC) C12(5-ene)KKNC12KNH2): 0.5 µg/mL
- MIC (MRSA 15903; S. aureus CI-15903, +polymer (½ MIC) C12(5-ene)KKNC12KNH2): 0.06 µg/mL
- MIC (MRSA 15903; S. aureus CI-15903, +polymer (⅓ MIC) C12(5-ene)KKNC12KNH2): 0.1 µg/mL
- MIC (MRSA 15903; Staphylococcus aureus, MRSA, 24 h, MRSA 15903, antibiotic alone (Table 22), read-out: MIC, Alone): 1 µg/mL
- MIC (MRSA 15903; Staphylococcus aureus, MRSA, 24 h, MRSA 15903, antibiotic alone, read-out: MIC): 0.5 µg/mL
- MIC (MRSA 15903; Staphylococcus aureus, MRSA, 24 h, S. aureus CI-15903, alone, read-out: MIC): 0.5 µg/mL
- Antibiotic MIC (E. coli 14384; +½ MIC (3.12 μM) C14(9-ene)KKNC12KNH2): 32 µg/mL
- Antibiotic MIC (E. coli 14384; +½ MIC C12K(NC8K)5NH2): 32 to 64 µg/mL
- Antibiotic MIC in presence of C12K(NC8K)7NH2 (SEQ ID NO: 4), +½ MIC (E. coli 14384; polymer at ½ of its MIC): 64 µg/mL
- Antibiotic MIC (S. aureus 15819; [10]): 0.25 µg/mL
- Antibiotic MIC (S. aureus 15819; [5]): 0.5 µg/mL
- Antibiotic MIC (S. aureus 15819; +¼ MIC (1.6 μM) C12KKNC12KNH2): 0.5 µg/mL
- Antibiotic MIC (S. aureus 15819; +½ MIC (3.12 μM) C12KKNC12KNH2): 0.5 µg/mL
- Antibiotic MIC (S. aureus 15819; [6]): 0.25 µg/mL
- Antibiotic MIC (S. aureus 15819; +⅓ MIC (2.1 μM) C12KKNC12KNH2): 0.5 µg/mL
- Antibiotic MIC (S. aureus 15819; no polymer (None), Table 8): 0.25 µg/mL
- Antibiotic MIC (S. aureus 15819; no polymer (None), Table 11): 0.5 µg/mL
- Antibiotic MIC (S. aureus 15819; no polymer (None), Table 13): 0.5 µg/mL

— US20180153995A1, “USE OF ANTIMICROBIAL POLYMERS FOR RE-SENSITIZATION OF MICROORGANISMS UPON EMERGENCE OF RESISTANCE TO ANTI-MICROBIAL AGENTS” (Technion Research & Development Foundation Limited, priority 2008, published 2018)
